Assay [1] concerns the target T1, D3 DAR (Homo sapiens, UniProt P35462). Kind of assay: Go BRET activation assay, D3 DAR. Format: cell-based. As to conditions: EC80 DA (30 nM); for Emax: 5 min, read-out: D3 Go BRET Imax. As to the method:
Briefly, HEK293T cells transiently expressing either the D2 DAR or D3 DAR and GαoA-Rluc8, untagged-β1, and mVenus-γ2 were harvested with EBSS, plated in 96-well white plates at 20,000 cells/well in DPBS and incubated at RT for 45 min. […] BRET signal was determined by quantifying and calculating the ratio of the light emitted by mVenus (525 nm) over that emitted by RLuc8 (485 nm) using a PHERAstar FSX Microplate Reader (BMG Labtech).
For orientation: Bioluminescence resonance energy transfer reports proximity on the nanometre scale.

Assay [2] addresses T1, D3 DAR. Kind of assay: Functional curve-shift assays using the DiscoverX β-arrestin recruitment assay. Format: cell-based. Further details: host or cells: CHO. As to conditions: for IC50: agonist dopamine, read-out: Functional IC50 for decreasing the Emax of dopamine; for mode of antagonism in curve-shift assays: versus agonist (dopamine, pramipexole). From the text: To further assess the mechanism of action of Cmp. […] 1 (FIGS. 4B and 4D). […] Average curves are shown (mean±SEM from at least 3 experiments each performed in triplicate). […] In contrast, increasing concentrations of Cmp.
1. FIG. 6A-C panels show concentration-response curves of dopamine in the absence or presence of increasing concentrations of compound. Cmp. […] 18 (FIG. 6A), Cmp. 5 (FIG. 6B), and Cmp. 17 (FIG. 6C), respectively. Average curves are shown (mean±SEM from at least 3 experiments, each performed in triplicate).
(§1) A D3 DAR β-arrestin cell line from DiscoverX (Fremont, CA) was used as described in the protocol below (Table 2). A CHO cell line engineered to overexpress the D3 DAR fused with a small 42-amino acid fragment of β-galactosidase called ProLink™ and a fusion protein consisting of β-arrestin and a larger N-terminal deletion mutant of β-galactosidase was used (DiscoverX catalogue number 93-0579C2). When the D3 DAR is activated by dopamine, it stimulates binding of β-arrestin to ProLink-tagged D3 DARs, and the two complementary parts of β-galactosidase form a functional enzyme. When substrate (PathHunter® Detection reagent, DiscoverX 93-0001) is added, β-galactosidase hydrolyzes it and generates a chemiluminescent signal.
(In general: Arrestin recruitment assays detect the binding of arrestin to an activated receptor.)

Assay [3] concerns the target T1, D3 DAR. Nature of the assay: DiscoverX D3 DAR β-arrestin recruitment assay. Format: cell-based. Details: host or cells: CHO. Conditions: for Emax: Imax=maximum inhibition, EC80 DA (30 nM).
From the text: as §1

In assay [4] the target is D2 DAR (Homo sapiens, UniProt P14416). Nature of the assay: DiscoverX D2 DAR β-arrestin recruitment assay. Format: cell-based. Further details: host or cells: CHO. Conditions: for D2 DAR Imax / IC50: EC80 concentration of DA (1 μM); for antagonism of dopamine activation of the D2 DAR: DiscoverX β-arrestin assay, FIG. 2B. The text has this:
For a secondary-screen and selectivity assays, DAR PathHunter®-arrestin GPCR cell lines from DiscoverX (Fremont, CA) were used. In the D2 DAR PathHunter®-arrestin GPCR cell line, the D2 DAR is overexpressed and fused with a small 42-amino acid fragment of β-galactosidase called ProLink™ on a CHO cellular background expressing a fusion protein of β-arrestin and a larger N-terminal deletion mutant of β-galactosidase (“enzyme acceptor”). When the D2 DAR is activated by dopamine, it stimulates binding of β-arrestin to the ProLink-tagged DAR and the two complementary parts of β-galactosidase form a functional enzyme. When substrate (PathHunter™ Detection reagent) is added, β-galactosidase hydrolyzes it and generates a chemiluminescent signal.

For assay [5], the target named is T1, D3 DAR. Kind of assay: [3H]-methylspiperone radioligand binding assay. As to conditions: single high 40 μM concentration. As to the method:
Compounds were tested for their ability to compete with the orthosteric radioligand [^3H]-methylspiperone for binding to the D3 DAR using HEK cells transiently transfected with the D3 DAR as described in the detailed protocol below presented in Table 5. Cells were cultured in Dulbecco's modified Eagle's Medium (Corning, catalogue no. 10-013) containing 10% FBS, 1,000 units/mL Penicillin, […] Streptomycin, 100 mM sodium pyruvate, 1 μg/mL Gentamicin, and […] G418. All cells were maintained at 37° C. in 5% CO2 and 90% humidity. For radioligand binding assays cells were removed mechanically using calcium-free Earle's balanced salt solution (EBSS). Intact cells were collected by centrifugation and then lysed with 5 mM Tris-HCl and 5 mM MgCl2 at pH 7.4. Homogenates were centrifuged at 30,000×g for 30 minutes. The membranes were re-suspended in EBSS (US Biological, catalogue no. E0249-05) pH 7.4 to a concentration of 16 μg/mL. For competition binding studies, membrane preparations were incubated for 90 minutes at room temperature with various concentrations of compound and a single concentration of [^3H]-methylspiperone (Perkin Elmer, NET856) in a reaction volume of […]. Non-specific binding was determined in the presence of 4 μM (+)-butaclamol (Sigma-Aldrich, catalogue no. D033). Bound ligand was separated from unbound by filtration through GF/C filters using a PerkinElmer cell harvester and quantified on a Top-count (PerkinElmer). Ki values were determined using Cheng-Prusoff equation from observed IC50 values and ligand Kd values from separate saturation experiments.

[6] abbreviates: EC80 concentration of DA (30 nM), read-out: D3 DAR IC50.
The mark [7] stands for this setting: DiscoverX β-arrestin assay, FIG. 1A, 2A, read-out: IC50, inhibition of dopamine-stimulated β-arrestin recruitment to the D3 DAR.

Values joined by “and” are separate entries in the source; they are usually repeats but may differ in a detail not shown here. Equal values may be shown once.

As usually defined, the IC50 is the midpoint of a concentration-inhibition curve.

Sequence of D2 DAR (P14416 whole entry, the tested form may be a part): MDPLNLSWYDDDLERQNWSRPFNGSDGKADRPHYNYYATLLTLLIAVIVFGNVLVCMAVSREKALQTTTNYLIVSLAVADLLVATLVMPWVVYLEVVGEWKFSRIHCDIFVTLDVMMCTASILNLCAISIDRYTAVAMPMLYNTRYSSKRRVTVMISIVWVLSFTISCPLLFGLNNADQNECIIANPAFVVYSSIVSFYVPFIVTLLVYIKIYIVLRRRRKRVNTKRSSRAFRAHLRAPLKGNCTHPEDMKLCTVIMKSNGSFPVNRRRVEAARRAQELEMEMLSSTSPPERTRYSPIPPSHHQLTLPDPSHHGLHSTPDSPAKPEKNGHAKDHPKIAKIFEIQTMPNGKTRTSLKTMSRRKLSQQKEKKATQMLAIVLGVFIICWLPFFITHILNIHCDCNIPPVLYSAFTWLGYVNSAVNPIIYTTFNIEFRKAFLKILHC
T1 sequence (P35462 whole entry): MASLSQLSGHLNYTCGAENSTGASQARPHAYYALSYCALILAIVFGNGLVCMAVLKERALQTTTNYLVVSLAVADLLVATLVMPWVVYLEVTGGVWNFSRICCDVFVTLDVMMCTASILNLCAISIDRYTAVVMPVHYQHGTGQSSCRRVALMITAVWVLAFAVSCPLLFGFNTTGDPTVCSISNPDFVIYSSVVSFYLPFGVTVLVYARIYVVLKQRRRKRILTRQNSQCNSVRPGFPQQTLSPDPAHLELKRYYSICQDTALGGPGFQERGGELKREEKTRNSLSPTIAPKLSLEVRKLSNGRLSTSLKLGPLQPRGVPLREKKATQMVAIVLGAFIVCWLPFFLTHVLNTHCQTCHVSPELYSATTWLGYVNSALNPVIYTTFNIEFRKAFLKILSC

Turning to `Cc1[nH]c(C)c(S(=O)(=O)Nc2ccc(C(F)(F)F)c(Br)c2)c1C(=O)N1CCCC1` [Cmp. 18], the Emax in assay [1] and in assay [3] was 80 to 100% throughout. Also, the IC50 was over 50 µM in assay [1], 3.6 µM in assay [2], under 10 µM in assay [3] (setting [6]) and over 100 µM in assay [4]. The “mode of antagonism in curve-shift assays” value in assay [2] was “noncompetitive antagonism”. Moreover, the “D2 DAR Imax” value in assay [4] is listed as “NA (“NA” indicates not active)”.

For the molecule `CCOC(=O)C1=NOC2(C1)C(=O)Nc1ccc(OC(F)(F)F)cc12` (racemic) [Cmp. 25, Ethyl 2-oxo-5-(trifluoromethoxy)-4′H-spiro[indoline-3,5′-isoxazole]-3′-carboxylate], the IC50 is over 50 µM in assay [1]; ~13 µM and ~15 µM in assay [3] (setting [7]); 10 to 50 µM in assay [3] (setting [6]); over 100 µM in assay [4]. This molecule also yielded an Emax in assay [3] of 80 to 100%. Moreover, the “inhibition of [3H]-methylspiperone binding to the D3 DAR” value in assay [5] was “neither compound exhibited measurable ability to inhibit the binding”. Also, the “antagonism of dopamine activation of the D2 DAR” value in assay [4] was “lacks ability to antagonize dopamine activation”. The “D2 DAR Imax” value in assay [4] is “NA (“NA” indicates not active)”.

Turning to `Cc1cccc(CNC(=O)c2sc(=O)n(Cc3c(C)cccc3C)c2C)c1` [Cmp. 26], the IC50 in assay [3] (setting [7]) was about 30 µM; in assay [3] (setting [6]) it was 10 to 50 µM; in assay [4], over 100 µM. The molecule also returned an Emax in assay [3] of 80 to 100%. Also, the “inhibition of [3H]-methylspiperone binding to the D3 DAR” value in assay [5] is given as “neither compound exhibited measurable ability to inhibit the binding”. Besides, in assay [4], the “antagonism of dopamine activation of the D2 DAR” value was “lacks ability to antagonize dopamine activation”. The “D2 DAR Imax” value in assay [4] is given as “NA (“NA” indicates not active)”.

For `Cc1[nH]c(C)c(S(=O)(=O)Nc2ccc(C(F)(F)F)c(Cl)c2)c1C(=O)N1CCCC1` [Cmp. 5], the Emax in assay [1] and in assay [3] was 80 to 100% in each case. For the same molecule, the IC50 in assay [1] is 1 to 10 µM; in assay [2], 2.3 µM; in assay [3] (setting [6]), under 10 µM; in assay [4], over 100 µM. Moreover, the “mode of antagonism in curve-shift assays” value in assay [2] is given as “noncompetitive antagonism”. The “D2 DAR Imax” value in assay [4] is given as “NA (“NA” indicates not active)”.

In the case of `Cc1[nH]c(C)c(S(=O)(=O)Nc2ccc(Cl)c(C(F)(F)F)c2)c1C(=O)N1CCCC1` [compound 7], the Emax in assay [1] is over 100%; in assay [3], 80 to 100%. Further, the IC50 was 1 to 10 µM in assay [1], under 10 µM in assay [3] (setting [6]) and over 100 µM in assay [4]. Moreover, the “D2 DAR Imax” value in assay [4] was “NA (“NA” indicates not active)”.

Take `CCc1ccc(NS(=O)(=O)c2c(C)[nH]c(C)c2C(=O)N2CCCC2)cc1Cl` [compound 8]: the Emax in assay [1] and in assay [3] was 80 to 100% throughout. The IC50 in assay [1] is 1 to 10 µM; in assay [3] (setting [6]), 10 to 50 µM; in assay [4], over 100 µM. The “D2 DAR Imax” value in assay [4] was “NA (“NA” indicates not active)”.

On to `Cc1[nH]c(C)c(S(=O)(=O)Nc2ccc(C3CC3)c(Cl)c2)c1C(=O)N1CCC(F)(F)C1` [compound 36, N-(3-chloro-4-cyclopropylphenyl)-4-(3,3-difluoropyrrolidine-1-carbonyl)-2,5-dimethyl-1H-pyrrole-3-sulfonamide], for which the Emax in assay [1] and in assay [3] was 80 to 100% each time. Besides, the results for the IC50 in assay [1], in assay [3] (setting [6]) and in assay [4] were 1 to 10 µM, 10 to 50 µM and over 100 µM, respectively. Also, the “D2 DAR Imax” value in assay [4] was “NA (“NA” indicates not active)”.

For `Cc1[nH]c(C)c(S(=O)(=O)Nc2ccc(C(F)(F)F)c(Cl)c2)c1C(=O)N(C)C` [compound 21, 4-(n-(3-chloro-4-(trifluoromethyl)phenyl)sulfamoyl)-N,N,2,5-tetramethyl-1H-pyrrole-3-carboxamide], the Emax in assay [1] was over 100%; in assay [3], 80 to 100%. For the same molecule, the IC50 in assay [1] is 10 to 50 µM; in assay [3] (setting [6]), under 10 µM; in assay [4], over 100 µM. Besides, the “D2 DAR Imax” value in assay [4] is given as “NA (“NA” indicates not active)”.

In the case of `CCN1CCCC1CNC(=O)c1cc(S(N)(=O)=O)ccc1OC` (centres unmarked) [sulpiride, reference compound], in assay [2], the “mode of antagonism in curve-shift assays” value is listed as “behaves in a competitive manner”.

With `Cc1[nH]c(C)c(S(=O)(=O)Nc2cc(Cl)c(C(F)(F)F)c(Cl)c2)c1C(=O)N1CCC(F)(F)C1` [compound 35, N-(3,5-dichloro-4-(trifluoromethyl)phenyl)-4-(3,3-difluoropyrrolidine-1-carbonyl)-2,5-dimethyl-1H-pyrrole-3-sulfonamide], the Emax in assay [1] and in assay [3] was 80 to 100% throughout. The half-maximal inhibitory concentration (IC50) in assay [1] is under 1 µM; in assay [3] (setting [6]) it was under 10 µM; in assay [4] it was over 100 µM. Moreover, the “D2 DAR Imax” value in assay [4] is reported as “NA (“NA” indicates not active)”.

On to `CCc1[nH]c(CC)c(S(=O)(=O)Nc2ccc(C(F)(F)F)c(Cl)c2)c1C(=O)N1CCCC1` [compound 39, N-(3-chloro-4-(trifluoromethyl)phenyl)-2,5-diethyl-4-(pyrrolidine-1-carbonyl)-1H-pyrrole-3-sulfonamide], for which the Emax in assay [1] was over 100%; in assay [3], 80 to 100%. Moreover, the results for the IC50 in assay [1], in assay [3] (setting [6]) and in assay [4] were 1 to 10 µM, 10 to 50 µM and over 100 µM, respectively. The “D2 DAR Imax” value in assay [4] is “NA (“NA” indicates not active)”.
